{"source": "patent US10758513B2", "about": "“Modulators of mitochondrial protein import” (THE REGENTS OF THE UNIVERSITY OF CALIFORNIA, priority 2011, dated 2020)", "key": {"isogenic control (TIM10)": {"tested_on": "isogenic control (TIM10)", "test": "Yeast growth inhibition (MIC50), isogenic control (TIM10)", "assay_type": "cell-based", "conditions": "Saccharomyces cerevisiae", "procedure": "A primary screen was performed using freshly streaked tim10-1 diluted in YPD to an OD600 of approximately 0.0002 and kept on ice throughout the screening run. A Titertek multidrop (Huntsville, Ala.) was used dispense 40 μL of cell suspension to all wells of each clear 384-well plate (Greiner Bio One). After yeast suspension warmed to room temperature, a Biomek FX (Beckman Coulter) was used to pin transfer 0.5 μL of compound from 1 mM stock or DMSO to respective wells. Approximate screening concentration was 12.5 μM. All operations were performed by an automated plate scheduler to ensure consistency across the screening run. After completed compound transfer, all plates were incubated at 25° C. in a humidified incubator until the OD600 reached approximately 0.8 in the control wells; the control consisted of the tim10-1 mutant with the vehicle 1% DMSO. Each plate was shaken in a Beckman orbital shaker to resuspend settled cells, and the OD600 in each well was read by a Wallac Victor plate reader (Perkin Elmer). The top 600 growth inhibitory compounds were determined and assembled into two plates. Using a similar screening methodology, hit compounds were reconfirmed with the tim10-1 strain and growth inhibition was compared to the WT strain (TIM10) as well as the “rescued” strain (tim10-1 TIM10 that contained a copy of the wild-type TIM10 genes on a centromeric plasmid) strains. […]"}, "Tim9-Tim10 complex [1]": {"tested_on": "Tim9-Tim10 complex", "test": "Crosslinking and immunoprecipitation of AAC with Tim9", "assay_type": "biochemical, yeast", "conditions": "25 μM MitoBloCK-1; BMH crosslinker", "procedure": "Crosslinking and immunoprecipitation experiments were derived from procedures previously utilized (3) with the inclusion of MitoBloCK-1 or DMSO. Following import, a portion of the reaction was subjected to crosslinking with 0.5 mM bis-maleimidohexane (BMH) for 30 minutes on ice. After quenching crosslinking reactions with 1 mM β-mercaptoethanol, a fraction of each sample was subjected to immunoprecipitation with polyclonal antibodies against either Tim9, Tom22, or Tom40. For each immunoprecipitation, 20 μL of antisera was bound to […], of protein A-sepharose slurry according to established protocols (Murphy M P, et al., (2001), Mol Cell Biol 21:6132-6138)."}, "Tim9-Tim10 complex [2]": {"biological_target": "T1, Tim9-Tim10 complex (Saccharomyces cerevisiae, UniProt O74700+P87108)", "T1 construct": "endogenous in cells; host or cells: isolated yeast mitochondria", "T1 sequence (O74700 whole entry)": "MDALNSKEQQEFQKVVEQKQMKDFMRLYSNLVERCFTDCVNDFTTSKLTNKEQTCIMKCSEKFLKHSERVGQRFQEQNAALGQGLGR", "T1 sequence (P87108 whole entry)": "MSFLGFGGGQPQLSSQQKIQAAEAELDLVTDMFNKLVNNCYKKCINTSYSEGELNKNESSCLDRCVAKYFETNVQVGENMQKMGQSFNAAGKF", "test": "Tim9-Tim10 complex stability by blue native gel", "assay_type": "biochemical, yeast", "conditions": "25 and 50 μM; BN gel", "procedure": "Respiration measurements were performed with an oxygen electrode using yeast mitochondria (M) from the tim10 tim9S suppressor strain in the presence of (A) 1% DMSO (vehicle control for drug) and (B) MitoBloCK-1. Respiration was initiated with NADH addition. 25 μM MitoBloCK-1 or 1% DMSO was added once steady-state respiration had been established. As a control, CCCP was added to uncouple the electron transport chain. (C) Respiration for series with DMSO or MitoBloCK-1 addition was quantitated (n=3). Bars represent mean rates with standard deviations as error bars. (D) Membrane potential (Δψ) of mitochondria measurements of purified mitochondria were performed with the fluorescent dye rhodamine 123 using a fluorimeter. Coupled mitochondria (M) sequestered and quenched the dye fluorescence; 1% DMSO was added to determine its effect on the […]. Collapse of the Δψ initiated by CCCP was included as a control. […] (H) As in 7B, MitoBloCK-1 (25 and 50 μM) was incubated with mitochondria and assembly of the Tim9-Tim10 complex was monitored by BN gels and immunoblotting with antibodies against Tim 10.\nSteady-state levels of the small Tim complexes were analyzed from mitochondria isolates from TIA110,titn10-1, and titn10-1 titn9S strains following established methods (Murphy M P, et al., (2001), Mol Cell Biol 21:6132-6138). […]"}, "[3]": {"tested_on": "tim10-1 tim9S mitochondria", "test": "In vitro import of radiolabeled precursors into tim10-1 tim9S mitochondria", "assay_type": "biochemical, yeast", "procedure": "Prior to import into purified mitochondria, ^35S-methionine and cysteine labeled proteins were generated with TNT Quick Coupled Transcription/Translation kits (Promega) and plasmids carrying the gene of interest. Transcription of genes was driven by either a T7 or SP6 promoter. Import reactions were conducted according to established methods. After frozen mitochondria aliquots were thawed and added to the import buffer at a final concentration of 100 μg/mL, drug or DMSO vehicle was added as indicated. A final vehicle concentration of 1% was used in all experiments. Following 15 minute incubation at 25° C., import reactions were initiated by the addition of […] of translation mix. Aliquots were removed at intervals during the reaction timecourse and import was terminated with either cold buffer, 25 μg/mL trypsin, or a combination of both. If trypsin was added to digest unimported precursor protein, soybean trypsin inhibitor (STI) was subsequently added in excess after 15 minute incubation on ice. After a final recovery of by centrifugation (8,000×g, 5 minutes), mitochondria were disrupted in Laemmli sample buffer. Imports of membrane proteins (AAC, PiC, Tom40, Tim22, and Tim23) included a carbonate extraction step to remove proteins that had not inserted into the membrane (Koehler C M, et al. (1998), Science 279:369-373). Samples from import reaction time points were resolved by SDS polyacrylamide gel electrophoresis (SDSPAGE) and gels were dried prior to exposing to film."}}, "data": [{"smiles": "NC(=S)N/N=C/c1c(O)c(Br)cc2oc3c(c12)CCCC3", "note": "[MitoBloCK-1]", "values": [{"measurement": "MIC50", "setting": "isogenic control (TIM10)", "value": "> 200", "unit": "µM"}, {"measurement": "crosslinked Tim9-AAC product after immunoprecipitation", "setting": "Tim9-Tim10 complex [1]", "value": "decreased"}, {"measurement": "steady-state stability of the Tim9-Tim10 complex", "setting": "Tim9-Tim10 complex [2]", "value": "did not alter steady-state stability of the Tim9-Tim10 complex"}, {"measurement": "protease sensitivity of AAC precursor", "setting": "[3]; presence of a membrane potential", "value": "sensitive to protease"}, {"measurement": "import of Hsp60 (TIM23 pathway)", "setting": "[3]; tim10-1 tim9S mitochondria", "value": "did not impair import"}, {"measurement": "import of Mia40 (Mia40/Erv1 pathway)", "setting": "[3]; tim10-1 tim9S mitochondria", "value": "not inhibited"}, {"measurement": "import of Su9-DHFR (TIM23 pathway)", "setting": "[3]; tim10-1 tim9S mitochondria", "value": "did not impair import"}, {"measurement": "import of Tafazzin", "setting": "[3]; tim10-1 tim9S mitochondria", "value": "import was inhibited"}, {"measurement": "import of Tim9 (Mia40/Erv1 pathway)", "setting": "[3]; tim10-1 tim9S mitochondria", "value": "not inhibited"}, {"measurement": "import of Tim10 (Mia40/Erv1 pathway)", "setting": "[3]; tim10-1 tim9S mitochondria", "value": "not inhibited"}, {"measurement": "import of Tim22", "setting": "[3]; tim10-1 tim9S mitochondria", "value": "impaired"}, {"measurement": "import of Tim23", "setting": "[3]; tim10-1 tim9S mitochondria", "value": "but not Tim23 was impaired"}, {"measurement": "import of Tom40", "setting": "[3]; tim10-1 tim9S mitochondria", "value": "inhibited the import"}, {"measurement": "import of cyt b2-DHFR (TIM23 pathway)", "setting": "[3]; tim10-1 tim9S mitochondria", "value": "did not impair import"}, {"measurement": "import of phosphate carrier (PiC)", "setting": "[3]; tim10-1 tim9S mitochondria", "value": "inhibited the import"}, {"measurement": "import of AAC", "setting": "[3]; tim10-1 tim9S mitochondria, 1 μM MitoBloCK-1 or greater", "value": "markedly decreased"}]}]}
